From patent US6916802B2, “Amino ceramide-like compounds and therapeutic methods of use” (Genzyme Corporation, priority 2002, dated 2005)
Values joined by “and” are separate entries in the source; they are usually repeats but may differ in a detail not shown here. Equal entries are not always repeated. Marks after values point to notes of the source that are not given here.

Columns and labels:
[1] = system: GlcCer synthase of MDCK cell homogenates; assay: Inhibition of ceramide glucosyltransferase (GlcCer synthase) of MDCK cell homogenates; format: biochemical, canine; conditions: for Inhibition at 5 μM: 5 μM inhibitor; for Inhibition at 5 μM / % Inhibition at 80 μM: triplicate ± SD, samples partly isomer mixtures; for % Inhibition at 80 μM: 80 μM inhibitor
Procedure: Assay of sphingolipid enzymes. The inhibitors were evaluated for their effectiveness against the GlcCer synthase of MDCK cell homogenates by incubation in a thermostatted ultrasonic bath (Radin N. S. et al., “Ultrasonic Baths as Substitutes for Shaking Incubator Baths,” Enzyme, 45:67-70 (1991)) with octanoyl sphingosine and uridinediphospho[^3H]glucose (Shukla, G. S. et al., “Glucosylceramide Synthase of Mouse Kidney: Further Characterization and Improved Assay Method,” Arch. Biochem. Biophys., 283:372-378 (1990)). The lipoidal substrate (85 μg) was added in liposomes made from 0.57 mg dioleoylphosphatidylcholine and 0.1 mg of Na sulfatide. Confluent cells were washed, then homogenized with a micro-tip sonicator at 0° C. for 3×30 sec; ˜0.2 mg of protein was used in each assay tube. In the case of the aromatic inhibitors, the test compound was simply evaporated to dryness from solution in the incubation tube. […] The aliphatic inhibitors, which appeared to be less soluble in water, were added as part of the substrate liposomes.

[2] = system: 9L brain gliosarcoma cells; assay: Tumor cell growth in vitro (sulforhodamine B), 9L; format: cell-based; conditions: 9L; rounded off to one digit; read-out: Inhibition of tumor cell growth in vitro, IC50
Procedure: (§1) Growth of cell lines. Comparisons of different inhibitors with regard to suppression of human cancer cell growth were made by the University of Michigan Cancer Center in vitro Drug Evaluation Core Laboratory. MCF-7 breast carcinoma cells, HT-29 colon adenocarcinoma cells, H-460 lung large cell carcinoma cells, and 9L brain gliosarcoma cells were grown in RPMI 1640 medium with 5% fetal bovine serum, 2 mM glutamine, 50 units/ml of penicillin, […] of streptomycin, and 0.1 mg/ml of neomycin. UMSCC-10A head and neck squamous carcinoma cells were grown in minimal essential medium with Earle salts and the same supplements. Medium components were from Sigma Chemical Co. Cells were plated in 96-well microtiter plates (1000 cells/well for H-460 and 9L cells, and 2000 cells/well for the other lines), and the test compounds were added 1 day later. The stock inhibitor solutions, 2 mM in 2 mM BSA, were diluted with different amounts of additional 2 mM BSA, then each solution was diluted 500-fold with growth medium to obtain the final concentrations indicated in the Figures and Tables.
(§2) Five days after plating the H-460 and 9L cells, or 6 days for the other lines, cell growth was evaluated by staining the adhering cells with sulforhodamine B and measuring the absorbance at 520 nm (Skehan, P. et al., “New Colorimetric Cytotoxicity Assay for Anticancer-Drug Screening,” J. Natl. Cancer Inst., 82:1107-1112 (1990)). The absorbance of the treated cultures is reported as percent of that of control cultures, to provide an estimate of the fraction of the cells that survived, or of inhibition of growth rate.

[3] = system: MCF-7 breast carcinoma cells; assay: Tumor cell growth in vitro (sulforhodamine B), MCF-7; format: cell-based, human; conditions: rounded off to one digit, read-out: Inhibition of tumor cell growth in vitro, IC50
Procedure: as §1, §2

[4] = system: HT-29 colon adenocarcinoma cells; assay: Tumor cell growth in vitro (sulforhodamine B), HT-29; format: cell-based, human; conditions: rounded off to one digit, read-out: Inhibition of tumor cell growth in vitro, IC50
Procedure: as §1, §2

[5] = system: H-460 lung large cell carcinoma cells; assay: Tumor cell growth in vitro (sulforhodamine B), H-460; format: cell-based, human; conditions: rounded off to one digit, read-out: Inhibition of tumor cell growth in vitro, IC50
Procedure: as §1, §2

MDCK cells [6] = assay: Cell growth of treated MDCK cells, total protein (Specific Example 2); format: cell-based, canine
Procedure: (§3) Cell culture and lipid extraction. One half million of MDCK cells were seeded into 10 cm style dish containing 8 ml serum free DMEM supplemented medium. Shayman, J. A. et al., J. Biol. Chem., 265:12135-12138 (1990). After 24 h the medium was replaced with 8 ml of the medium containing 0, 11.8, 118 or 1180 nM D-t-P4, D-t-3′,4′-ethylenedioxy-P4 or D-4′-hydroxy)-P4. The GlcCer synthase inhibitors were added into the medium as a one to one complex with delipidated BSA. Abe, A. et al., J. Lipid. Res., 36:611-621 (1995); Abe, A. et al., Biochim. Biophys. Acta, 1299:331-341 (1996). The cells were incubated for 24 h or 48 h with the inhibitors. After the incubation, the cells were washed twice with 8 ml of cold PBS and fixed with 2 ml of cold methanol. The fixed cells were scraped and transferred to a glass tube. Another one ml of methanol was used to recover the remaining cells in the dish.
(§4) Effects of D-threo-P4, D-threo4′-hydroxy-P4 and D-threo-3,4′-ethylenedioxy-P4 on GlcCer Synthesis and Cell Growth. To confirm the cellular specificity of D-threo-3′,4′-ethylenedioxy-P4 and D-threo-(4′-hydroxy)-P4 as compared to D-threo-P4, MDCK cells were treated with different concentrations of the inhibitors. The total protein amount in each sample was determined by the BCA method. In GlcCer analysis, lipid samples and standard lipids were applied to the same HPTLC plate pre-treated with borate and developed in a solvent consisting of C/M/W (63/24/4). The level of GlcCer was estimated from a standard curve obtained using a computerized image scanner. The values were normalized on the basis of the phospholipid content. The results are shown in FIG. 7, wherein each bar is the average values from three dishes, with error bars corresponding to one standard deviation. In the control, the total protein and GlcCer were 414±47.4 μg/dish and 24.3±1.97 ng/nmol phosphate, respectively.

MDCK cells [7] = assay: GlcCer, ceramide and diradylglycerol content of treated MDCK cells (Specific Example 2); format: cell-based, canine; conditions: for GlcCer lost from the cells (depletion): 11.3 nM inhibitor
Procedure: as §3, with “After 24 h the medium was replaced with 8 ml of the medium containing 0, 11.8, 118 or 1180 nM D-t-P4, D-t-3′,4′-ethylenedioxy-P4 or D-4′-hydroxy)-P4.” left out
Three ml of chloroform was added to the tube and briefly sonicated using a water bath type sonicator. After centrifugation at 800 g for 5 min, the supernatant was transferred into another glass tube. The residues were reextracted with chloroform/methanol (1/1). After the centrifugation, the resultant supernatant was combined with the first one. The residues were air-dried and kept for protein analysis. Adding 0.9% NaCl to the supematant combined, the ratio of chloroform/methanol/aqueous was adjusted to 1/1/1. After centrifugation 800 g for 5 min, the upper layer was discarded. Methanol/water (1/1) with the same amount of volume of the lower layer was used to wash. The resultant lower layer was transferred into a small glass tube and dried down under a stream of nitrogen gas. A part of the lipid was used for lipid phosphate determination. Ames, B. N., Methods Enzymol., 8:115-118 (1966). The remainder was analyzed using HPTLC (Merck).
In order to determine whether inhibition of 1-O-acylceramide synthase was the basis for inhibitor mediated ceramide accumulation, the ceramide and diradylglycerol levels of MDCK cells treated D-threo-P4, D-threo-3′,4′-ethylenedioxy-P4, and D-threo-(4′-hydroxy)-P4 were measured (Table 9). MDCK cells (5×10^5) were seeded into a 10 cm dish and incubated for 24 h. Following the incubation, the cells were treated for 24 or 48 h with or without P4 or the phenyl substitute homologues. Both ceramide and diradylglycerol contents were determined by the method of Preis, J. et al., J. Biol. Chem., 261:8597-8600 (1986). GlcCer content was measured densitometrically by a video camera and use of NIH image 1.49. Significant increases in both ceramide and diradylglycerol occurred only in cells treated with inhibitor concentrations in excess of 1 mM. This was approximately 30-fold lower than the concentration required for inhibition of the 1-O-acylceramide synthase assayed in the cellular homogenates. […] Abe, A. et al., Biochim. Biophys. Acta, 1299:331-341 (1996).
as §4

[8] = target: T1, 1-O-acylceramide synthase (Canis lupus familiaris, UniProt Q6XPZ3); assay: 1-O-acylceramide synthase (transacylase) assay; format: biochemical; conditions: D-threo enantiomers, FIG. 12
T1 construct: the 1-O-acylceramide synthase assayed in the cellular homogenates; endogenous in cells; host or cells: cellular homogenates (MDCK, from context)
T1 sequence (Q6XPZ3 32-408): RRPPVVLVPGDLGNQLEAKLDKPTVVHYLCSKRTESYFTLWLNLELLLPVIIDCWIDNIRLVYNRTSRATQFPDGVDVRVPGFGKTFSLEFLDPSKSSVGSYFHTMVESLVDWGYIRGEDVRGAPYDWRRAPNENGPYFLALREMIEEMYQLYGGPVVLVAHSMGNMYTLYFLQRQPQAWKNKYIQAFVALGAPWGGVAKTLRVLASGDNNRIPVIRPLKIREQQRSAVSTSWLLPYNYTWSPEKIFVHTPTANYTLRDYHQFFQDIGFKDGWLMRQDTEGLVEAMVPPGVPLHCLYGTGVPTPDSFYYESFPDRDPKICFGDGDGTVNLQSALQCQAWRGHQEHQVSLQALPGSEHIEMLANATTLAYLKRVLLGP
Description: Distinguishing Between Inhibition of GlcCer Synthase and 1-O-acylceramide Synthase Inhibition. […] An alternative pathway for ceramide metabolism was subsequently identified, the acylation of ceramide at the 1-hydroxyl position, which was blocked by both threo and erythro diastereomers of PDMP. The specificities of D-threo-P4, D-threo-3′,4′-ethylenedioxy-P4, and D-threo-(4′-hydroxy)-P4 for GlcCer synthase were studied by assaying the transacylase.

[9] = substituent of phenyl group; estimated from the Table in Hogberg et al.; cited from earlier work
[10] = system: three of the tumor cell lines; assay: Growth tests of chemotherapeutic agents in the Drug Evaluation Core Laboratory; format: cell-based; conditions: range over three of the tumor cell lines
Procedure: as §1, §2

Compound: CCCCCCCCCCCCCCCC(=O)NC(CN1CCCCC1)C(O)c1ccccc1 (mixture of isomers) [BML-115]
- Inhibition at 5 μM [1]: 12.4%
- % Inhibition at 80 μM ([1]; 80 µM): 82 ± 0.3^b % and 84 ± 0.8^a %
- improvement of activity relative to PPMP ([1]; calculated from inhibitions at 5 μM in Expt. f and relative purities): ~1.4 fold
- IC50 [2]: 2 µM
- IC50 [3]: 2 µM
- IC50 [4]: 2 µM
- IC50 [5]: 2 µM

Compound: CCCCCCCCCCCCCCCC(=O)NC(CN1CCC1)C(O)c1ccccc1 (mixture of isomers) [BML-123]
- Inhibition at 5 μM [1]: 15 ± 0.8^f %
- % Inhibition at 80 μM [1]: 86 ± 0.1^d %
- IC50 [2]: 2 µM
- IC50 [3]: 2 µM
- IC50 [4]: 2 µM

Compound: CCCCCCCCCCCCCCCC(=O)N[C@H](CN1CCCC1)[C@H](O)c1ccc2c(c1)OCCO2 [D-threo-3′,4′-ethylenedioxy-P4, D-t-3′,4′-ethylenedioxy-1-phenyl-2-palmitoylamino-3-pyrrolidino-1-propanol]
- total protein versus untreated cells (MDCK cells [6]; 1130 nM): significant decrease
- total protein content versus untreated cells (MDCK cells [6]; 11.3 or 113 nM): little difference
- GlcCer lost from the cells (depletion) (MDCK cells [7]): ~78%
- GlcCer lost from the cells (depletion) (MDCK cells [7]; listed as D-t-3′,4′-ethylenedioxy-P4): 80%
- Ceramide (pmol/nmol phospholipids) (MDCK cells [7]; 113 nM, 24 h): 5.21 pmol/nmol phospholipids
- level of ceramide versus untreated cells (MDCK cells [7]; 1130 nM): two times higher
- activity in blocking 1-O-acylceramide synthase [8]: comparable activity

Compound: CCCCCCCCCCCCCCCC(=O)N[C@H](CN1CCCC1)[C@H](O)c1ccccc1 [D-threo-P4]
- GlcCer lost from the cells (depletion) (MDCK cells [7]): 27%
- Ceramide (pmol/nmol phospholipids) (MDCK cells [7]; 11.3 nM, 24 h): 5.33 ± 0.41 pmol/nmol phospholipids
- Diradylglycerol (pmol/nmol phospholipids) (MDCK cells [7]; 11.3 nM, 24 h): 24.1 ± 1.66 pmol/nmol phospholipids
- Ceramide (pmol/nmol phospholipids) (MDCK cells [7]; 11.3 nM, 48 h): 5.68 ± 0.27 pmol/nmol phospholipids
- Diradylglycerol (pmol/nmol phospholipids) (MDCK cells [7]; 11.3 nM, 48 h): 29.6 ± 0.73 pmol/nmol phospholipids
- Ceramide (pmol/nmol phospholipids) (MDCK cells [7]; 113 nM, 24 h): 4.64 ± 0.38 pmol/nmol phospholipids
- Diradylglycerol (pmol/nmol phospholipids) (MDCK cells [7]; 113 nM, 24 h): 26.6 ± 1.56 pmol/nmol phospholipids
- Ceramide (pmol/nmol phospholipids) (MDCK cells [7]; 113 nM, 48 h): 7.08 ± 0.29 pmol/nmol phospholipids
- Diradylglycerol (pmol/nmol phospholipids) (MDCK cells [7]; 113 nM, 48 h): 33.0 ± 2.63 pmol/nmol phospholipids
- Ceramide (pmol/nmol phospholipids) (MDCK cells [7]; 1130 nM, 24 h): 5.10 ± 0.35 pmol/nmol phospholipids
- Diradylglycerol (pmol/nmol phospholipids) (MDCK cells [7]; 1130 nM, 24 h): 27.1 ± 0.67 pmol/nmol phospholipids
- Ceramide (pmol/nmol phospholipids) (MDCK cells [7]; 1130 nM, 48 h): 9.74 ± 0.53 pmol/nmol phospholipids
- Diradylglycerol (pmol/nmol phospholipids) (MDCK cells [7]; 1130 nM, 48 h): 38.8 ± 1.11 pmol/nmol phospholipids
- σ + π [9]: 0.00
- activity in blocking 1-O-acylceramide synthase [8]: comparable activity

Compound: CCCCCCCCCCCCCCCC(=O)N[C@H](CN1CCCC1)[C@H](O)c1ccc(OC)cc1 [D-threo-p-methoxy-P4]
- σ + π [9]: −0.29

Compound: COc1cc([C@@H]2c3cc4c(cc3[C@@H](O[C@@H]3O[C@@H]5CO[C@@H](C)O[C@H]5[C@H](O)[C@H]3O)[C@H]3COC(=O)[C@H]23)OCO4)cc(OC)c1O [etoposide]
- IC50 [10]: 0.1 to 1 µM

Compound: O=c1[nH]cc(F)c(=O)[nH]1 [fluorouracil]
- IC50 [10]: 0.07 to 0.2 µM

Compound: CCCCCCCCCCCCCCCC(=O)N[C@H](CN1CCCC1)[C@H](O)c1cccc(OC)c1 [m-methoxy-P4]
- σ + π [9]: 0.10

Compound: CN(Cc1cnc2nc(N)nc(N)c2n1)c1ccc(C(=O)N[C@@H](CCC(=O)O)C(=O)O)cc1 [methotrexate]
- IC50 [10]: 0.03 to 0.2 µM

Compound: CCCCCCCCCCCCCCCC(=O)N[C@H](CN1CCCC1)[C@H](O)c1ccc(Cl)cc1 [p-chloro-P4]
- σ + π [9]: 0.94

Compound: CCCCCCCCCCCCCCCC(=O)N[C@H](CN1CCCC1)[C@H](O)c1ccc(C)cc1 [p-methyl-P4]
- σ + π [9]: 0.39
